Values quoted from earlier work in patent US11167013B2, “Sucrose acetate isobutyrate-based compositions, methods and uses thereof” (ASSOCIATION FOR THE ADVANCEMENT OF TISSUE ENGINEERING CELL …, priority 2017, dated 2021).

What was measured:
[1] = as food additive
[2] = neat SAIB

Sucrose acetate isobutyrate [SAIB]
allowable daily intake [1]: 20 mg·kg/day
viscosity [2]: over 100 Pa·s
